{
  "source": "paper PMC8391421",
  "about": "“Identification of Novel Positive Allosteric Modulators of Neurotrophin Receptors for the Treatment of Cognitive Dysfunction” (Cells, 2021)",
  "key": {"[1]": {"molecular_target": "T1, TrkB (Homo sapiens, UniProt Q16620)", "T1 construct": "host or cells: U2OS (human osteosarcoma), co-expressing p75 and SHC-1 fused to the enzyme acceptor", "T1 sequence (Q16620 32-822)": "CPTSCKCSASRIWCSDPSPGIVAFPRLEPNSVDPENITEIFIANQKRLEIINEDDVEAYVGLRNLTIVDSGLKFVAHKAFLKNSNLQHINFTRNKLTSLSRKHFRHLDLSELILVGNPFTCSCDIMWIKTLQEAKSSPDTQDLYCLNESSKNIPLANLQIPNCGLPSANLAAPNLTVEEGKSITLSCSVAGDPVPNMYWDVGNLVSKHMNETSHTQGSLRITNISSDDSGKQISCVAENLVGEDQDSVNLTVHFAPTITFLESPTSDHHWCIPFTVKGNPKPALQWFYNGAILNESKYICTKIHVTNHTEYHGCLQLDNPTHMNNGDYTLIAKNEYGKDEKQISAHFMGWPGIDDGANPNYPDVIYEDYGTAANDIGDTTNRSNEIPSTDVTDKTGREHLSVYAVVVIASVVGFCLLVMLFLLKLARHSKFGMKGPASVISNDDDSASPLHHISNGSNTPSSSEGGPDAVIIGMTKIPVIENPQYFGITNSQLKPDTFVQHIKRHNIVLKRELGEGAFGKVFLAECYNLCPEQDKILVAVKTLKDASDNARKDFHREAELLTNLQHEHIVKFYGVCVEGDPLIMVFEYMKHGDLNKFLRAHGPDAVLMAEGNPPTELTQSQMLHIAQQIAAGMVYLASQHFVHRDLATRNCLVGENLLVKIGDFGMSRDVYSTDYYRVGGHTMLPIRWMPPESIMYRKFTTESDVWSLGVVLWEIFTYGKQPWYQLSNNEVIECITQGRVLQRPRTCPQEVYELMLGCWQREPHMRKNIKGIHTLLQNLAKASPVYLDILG", "assay": "TrkB PathHunter cell-based assay (U2OS-TrkB/p75)", "method": "U2OS cells were maintained subconfluent in EMEM supplemented with 10% FBS and penicillin/streptomycin/hygromycin and G418. One day prior to the experiment, 5000 cells of EMEM supplemented with 0.5% horse serum were seeded in each well of a 384-well white plate. The assay was performed as previously described. Briefly, the TrkA or TrkB cell-based PathHunter® assays use enzyme fragment complementation (EFC) technology for the complementation of two β-galactosidase (β-gal) fragments in order to study protein–protein interactions. Upon activation with ligand, TrkA or TrkB are phosphorylated on several tyrosine residues, including tyrosine 490, leading to an interaction with SHC-1. In the PathHunter® assays, the Trk-receptors are fused to an enzyme donor tag, and SHC-1 is fused to a larger part of β-gal called an enzyme acceptor. The interactions between the recombinant enzyme donor, i.e., the Trk-receptor, with an enzyme acceptor, i.e., SHC-1, leads to an active β-gal enzyme. The functional (complemented) β-gal will hydrolyze a substrate to generate a luminescence signal. The generated luminescence was read using an EnVision plate reader from PerkinElmer, Upplands Väsby, Sweden, or an ID5 plate reader from Molecular Devices, Berkshire, RG41 5TS UK. […] Min- and Max-control wells were included on each plate. A compound was considered a hit if the percent activation was more than 50% and if the value was two standard deviations higher than the mean value of all of the samples on the plate. The average activation of all of samples on 10 different 384-well plates was 31%. […] Due to the risk of adverse events with the systemic administration of TrkA agonists, the screen and the re-screen processes were designed to increase the likelihood of identifying the positive modulators of NGF-signaling rather than identifying TrkA agonists. Based on the results of the re-screen, in combination with the physical–chemical properties of the molecules, a collection of hits was used for the EC50 determinations.\nBoth Toltrazuril and Ponazuril are registered veterinary products prescribed for parasitic infections in animals. […] The cellular response to NGF or BDNF was measured using PathHunter® assays employing β-gal enzyme fragment complementation technology. The activation of Trk-receptors leads to an intracellular interaction between the Trk-receptor and SHC-1 and thereby to the complementation of β-gal, which will render in a functional enzyme. β-gal will hydrolyze a substrate to generate luminescence, which is proportional to the number of activated receptors. […]"}, "[2]": {"molecular_target": "T2, insulin-like growth factor 1 receptor (IGF1R) (Homo sapiens, UniProt P08069)", "T2 construct": "host or cells: HEK293", "T2 sequence (P08069 31-1367)": "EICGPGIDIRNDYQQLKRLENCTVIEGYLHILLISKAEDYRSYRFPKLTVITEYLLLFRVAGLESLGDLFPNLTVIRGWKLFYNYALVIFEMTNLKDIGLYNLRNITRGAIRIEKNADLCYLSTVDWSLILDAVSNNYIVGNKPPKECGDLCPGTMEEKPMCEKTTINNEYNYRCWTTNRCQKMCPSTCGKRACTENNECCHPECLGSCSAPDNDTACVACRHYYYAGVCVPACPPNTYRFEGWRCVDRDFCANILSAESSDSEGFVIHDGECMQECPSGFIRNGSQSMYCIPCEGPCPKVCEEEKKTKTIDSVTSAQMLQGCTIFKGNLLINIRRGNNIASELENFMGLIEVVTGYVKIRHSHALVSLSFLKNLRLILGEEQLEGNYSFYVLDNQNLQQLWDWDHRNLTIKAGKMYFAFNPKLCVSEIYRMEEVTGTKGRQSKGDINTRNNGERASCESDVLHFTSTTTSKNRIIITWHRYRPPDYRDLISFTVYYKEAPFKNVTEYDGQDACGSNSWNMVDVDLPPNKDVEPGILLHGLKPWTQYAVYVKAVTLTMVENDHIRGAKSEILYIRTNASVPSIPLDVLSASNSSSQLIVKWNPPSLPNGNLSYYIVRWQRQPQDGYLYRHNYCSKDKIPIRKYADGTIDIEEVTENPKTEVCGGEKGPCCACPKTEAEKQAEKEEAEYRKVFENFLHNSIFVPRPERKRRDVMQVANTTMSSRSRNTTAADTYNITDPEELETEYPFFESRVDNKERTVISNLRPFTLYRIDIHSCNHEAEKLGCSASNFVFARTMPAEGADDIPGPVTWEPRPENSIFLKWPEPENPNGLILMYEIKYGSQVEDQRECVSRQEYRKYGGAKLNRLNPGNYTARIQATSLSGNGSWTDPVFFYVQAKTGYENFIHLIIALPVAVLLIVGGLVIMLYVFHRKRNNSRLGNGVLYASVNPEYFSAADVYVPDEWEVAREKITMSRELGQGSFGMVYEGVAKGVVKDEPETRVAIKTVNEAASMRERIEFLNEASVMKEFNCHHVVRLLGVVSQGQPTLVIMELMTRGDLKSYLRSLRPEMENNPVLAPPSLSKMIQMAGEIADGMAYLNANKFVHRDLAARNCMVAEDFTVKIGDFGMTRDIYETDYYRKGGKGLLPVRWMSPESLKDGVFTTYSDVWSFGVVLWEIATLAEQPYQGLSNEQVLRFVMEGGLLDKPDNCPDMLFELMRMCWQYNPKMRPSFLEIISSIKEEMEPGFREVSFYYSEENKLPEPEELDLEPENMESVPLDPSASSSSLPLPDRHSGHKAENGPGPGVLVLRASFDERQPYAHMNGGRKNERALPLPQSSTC", "assay": "IGF1R PathHunter cell-based assay (HEK293-IGF1R)", "source_text": "(§1) The human osteosarcoma cell lines U2OS-TrkA/p75, U2OS-TrkB/p75, U2OS-TrkC/p75, U2OS-ratTrkA/p75, U2OS-FGFR1 (fibroblast growth factor receptor 1) as well as the human embryonic kidney cell line HEK293-IGF1R (insulin-like growth factor 1 receptor) from DiscoverX, Birmingham, United Kingdom, were used in the in vitro experiments. Eagle’s minimum essential medium (EMEM) ATCC #30-2003 from LGC Standards AB, Borås, Sweden; Leibovitz’s L15 medium, RPMI1640, fetal bovine serum, horse serum, penicillin/streptomycin, and Hoechst dye purchased from Invitrogen, Gothenburg, Sweden, were also used. Black poly-D-lysine coated 384-well plates (Viewplate) were purchased from PerkinElmer, Upplands Väsby, Sweden, and white 384-well assay plates(3570) were purchased from Corning, Amsterdam, Netherlands. […] Recombinant intracellular domain (ICD) of TrkA (08-186) and single site biotinylated activated (08-486-20N) or non-activated TrkA (08-486-23N) were obtained from Carna Biosciences, Odense, Denmark. […]\n(§2) U2OS cells were maintained subconfluent in EMEM supplemented with 10% FBS and penicillin/streptomycin/hygromycin and G418. […] The functional (complemented) β-gal will hydrolyze a substrate to generate a luminescence signal. The generated luminescence was read using an EnVision plate reader from PerkinElmer, Upplands Väsby, Sweden, or an ID5 plate reader from Molecular Devices, Berkshire, RG41 5TS UK. […]"}, "[3]": {"molecular_target": "T3, TrkC (Homo sapiens, UniProt Q16288)", "T3 construct": "host or cells: U2OS (human osteosarcoma), co-expressing p75", "T3 sequence (Q16288 32-839)": "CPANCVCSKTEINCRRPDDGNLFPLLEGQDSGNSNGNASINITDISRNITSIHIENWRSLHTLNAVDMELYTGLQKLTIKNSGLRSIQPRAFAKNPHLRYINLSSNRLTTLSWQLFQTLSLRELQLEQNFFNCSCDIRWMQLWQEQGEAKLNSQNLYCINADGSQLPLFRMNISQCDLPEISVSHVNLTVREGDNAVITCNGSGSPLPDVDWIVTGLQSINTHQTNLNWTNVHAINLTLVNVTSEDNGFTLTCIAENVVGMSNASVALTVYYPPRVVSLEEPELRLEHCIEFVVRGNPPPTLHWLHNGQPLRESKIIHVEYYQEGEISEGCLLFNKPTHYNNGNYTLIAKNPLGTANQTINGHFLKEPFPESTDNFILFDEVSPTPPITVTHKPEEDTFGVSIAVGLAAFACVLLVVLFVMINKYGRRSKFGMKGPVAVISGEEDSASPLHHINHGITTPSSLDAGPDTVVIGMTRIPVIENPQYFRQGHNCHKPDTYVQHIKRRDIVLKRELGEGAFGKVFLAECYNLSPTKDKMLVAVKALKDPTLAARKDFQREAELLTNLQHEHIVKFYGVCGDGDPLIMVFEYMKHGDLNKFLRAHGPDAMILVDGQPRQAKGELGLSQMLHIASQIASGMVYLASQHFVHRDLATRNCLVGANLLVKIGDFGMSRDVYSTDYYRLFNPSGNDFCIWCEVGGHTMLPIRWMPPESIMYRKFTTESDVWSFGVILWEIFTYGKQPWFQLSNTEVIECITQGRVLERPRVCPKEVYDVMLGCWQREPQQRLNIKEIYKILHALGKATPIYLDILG", "assay": "TrkC PathHunter cell-based assay (U2OS-TrkC/p75)", "source_text": "as §1, §2"}},
  "data": [
    {"compound": "Cc1cc(-n2c(=O)[nH]c(=O)n(C)c2=O)ccc1Oc1ccc(S(=O)(=O)C(F)(F)F)cc1", "note": "[ACD855, Toltrazuril-sulfone]", "values": [
      {"measurement": "EC50", "setting": "[1]; PathHunter cell-based assay", "result": 3200, "unit": "nM"},
      {"measurement": "TrkB Effect (efficacy)", "setting": "[1]; PathHunter cell-based assay", "result": 319, "unit": "%"},
      {"measurement": "activation of TrkB-receptor by compound itself", "setting": "[1]; without ligand, 100% = 30 ng/mL ligand", "result": 45, "unit": "%"},
      {"measurement": "EC50", "setting": "[2]", "result": 900, "unit": "nM"},
      {"measurement": "IGF1R Effect (efficacy)", "setting": "[2]", "result": 25, "unit": "%"},
      {"measurement": "EC50", "setting": "[3]", "result": 800, "unit": "nM"},
      {"measurement": "TrkC Effect (efficacy)", "setting": "[3]", "result": 56, "unit": "%"}
    ]}
  ]
}
